Measurements published in US11000033B2, “Ketone or oxime compound, and herbicide” (NISSAN CHEMICAL CORPORATION, priority 2014, dated 2021).

Columns and labels:
Format in all cases: in vivo
Scirpus juncoides = experiment: Test Example 1: herbicidal activity, application before weed generation in submerged conditions (symbol B); details: application herbicide amount 320 g/ha
In short: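 Greenhouse growth at 25–30 °C lasted 3 weeks after treatment, when each weed was graded 0–5 by herbicidal ratio. Treatment was a diluted emulsion applied to the water surface of 4 cm-submerged alluvial soil on the sowing day.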

Leptochloa chinensis = experiment: Test Example 3: herbicidal effect by foliage application, Wagner pot (symbol D); details: application herbicide amount 320 g/ha
In short: (§1)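 Seeds sown in alluvial soil kept under 0.1–0.5 cm water, greenhouse 25–30 °C; 14 d growth. Leaves treated by small sprayer with water-diluted emulsion at a predetermined rate. Effect graded by set scale, 3 weeks.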

Cyperus difformis = experiment: Test Example 3: herbicidal effect by foliage application, Wagner pot (symbol E); details: application herbicide amount 320 g/ha
In short: as §1

Digitaria ciliaris = experiment: Test Example 4: herbicidal effect by soil treatment (symbol F); details: 320 g/ha
In short: (§2)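 Seeds were sown in sterilized diluvial soil, covered with about 1.5 cm of soil, and the soil surface was sprayed with a water-diluted emulsion of the compound at a predetermined rate. Plants grew in a greenhouse at 25° C. to 30° C.; effects were scored visually 3 weeks after application.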

[1] = tested on: Echinochloa crus-galli var. crus-galli; experiment: Test Example 4: herbicidal effect by soil treatment (symbol H); details: 320 g/ha
In short: as §2

Lolium multiflorum Lam. = experiment: Test Example 4: herbicidal effect by soil treatment (symbol K); details: 320 g/ha
In short: as §2

Amaranthus retroflexus = experiment: Test Example 4: herbicidal effect by soil treatment (symbol N); details: 320 g/ha
In short: as §2

Chenopodium album [2] = experiment: Test Example 4: herbicidal effect by soil treatment (symbol O); details: 320 g/ha
In short: as §2

rice = experiment: Test Example 4: effect on crop by soil treatment (symbol b); details: 320 g/ha
In short: (§3)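 Plants grew in a 25° C. to 30° C. greenhouse after spot-sowing of seeds, including beet, rapeseed, wheat and rice, into sterilized diluvial soil under roughly 1.5 cm of cover soil.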

beet = experiment: Test Example 4: effect on crop by soil treatment (symbol f); details: 320 g/ha
In short: as §3

Setaria viridis = experiment: Test Example 5: herbicidal effect by foliage application, plastic box (symbol G); details: 320 g/ha, 3 weeks after application
In short: (§4)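 Post-emergence spray; diluvial soil (sterilized), ~1.5 cm seed cover; greenhouse 25–30° C; 14-day-old plants; water-diluted emulsion at predetermined dose; visual score at 3 wk post-treatment.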

Alopecurus myosuroides = experiment: Test Example 5: herbicidal effect by foliage application, plastic box (symbol J); details: 320 g/ha, 3 weeks after application
In short: as §4

Abutilon theophrasti = experiment: Test Example 5: herbicidal effect by foliage application, plastic box (symbol M); details: 320 g/ha, 3 weeks after application
In short: as §4

Chenopodium album [3] = experiment: Test Example 5: herbicidal effect by foliage application, plastic box (symbol O); details: 320 g/ha, 3 weeks after application
In short: as §4

Stellaria media = experiment: Test Example 5: herbicidal effect by foliage application, plastic box (symbol P); details: 320 g/ha, 3 weeks after application
In short: as §4

Galium spurium = experiment: Test Example 5: herbicidal effect by foliage application, plastic box (symbol Q); details: 320 g/ha, 3 weeks after application
In short: as §4

Veronica persica = experiment: Test Example 5: herbicidal effect by foliage application, plastic box (symbol R); details: 320 g/ha, 3 weeks after application
In short: as §4

soybean = experiment: Test Example 5: effect on crop by foliage application, plastic box (symbol d); details: 320 g/ha, 3 weeks after application
In short: (§5)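 A greenhouse held between 25° C. and 30° C. was used to grow plants sown spot-wise, beneath ~1.5 cm of soil, in boxes of sterilized diluvial soil.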

rice plant = experiment: Test Example 5: effect on crop by foliage application, plastic box (symbol b); details: 320 g/ha, 3 weeks after application
In short: as §5

Row | SMILES | Herbicidal effect grade, B: Scirpus juncoides (Scirpus juncoides) | herbicidal effect on D (Leptochloa chinensis), grade 0-5 (Leptochloa chinensis) | herbicidal effect on E, grade 0-5 (Cyperus difformis) | F: Digitaria ciliaris, herbicidal effect grade (Digitaria ciliaris) | H: Echinochloa crus-galli var. crus-galli, herbicidal effect grade [1] | K: Lolium multiflorum Lam., herbicidal effect grade (Lolium multiflorum Lam.) | N: Amaranthus retroflexus, herbicidal effect grade (Amaranthus retroflexus) | O: Chenopodium album, herbicidal effect grade (Chenopodium album [2]) | b: directly sowed rice plant, effect grade on crop (rice) | f: beet, effect grade on crop (beet) | G: Setaria viridis, herbicidal effect grade (Setaria viridis) | J: Alopecurus myosuroides, herbicidal effect grade (Alopecurus myosuroides) | M: Abutilon theophrasti, herbicidal effect grade (Abutilon theophrasti) | O: Chenopodium album, herbicidal effect grade (Chenopodium album [3]) | P: Stellaria media, herbicidal effect grade (Stellaria media) | Q: Galium spurium, herbicidal effect grade (Galium spurium) | R: Veronica persica, herbicidal effect grade (Veronica persica) | d: soybean, effect on crop grade (soybean) | b: directly sowed rice plant, effect on crop grade (rice plant)
1 | CON=C(C)CC1CC(OC(=O)c2c(Cl)nn(C)c2Cl)=C(c2c(C)cc(C)cc2C)C1=O (stereo not shown) [1-160] | 4 (Herbicidal ratio of 70% or higher and lower than 90%) | 5 (Herbicidal ratio of 90% or more (almost completely withered)) | 5 (Herbicidal ratio of 90% or more (almost completely withered)) | 5 (Herbicidal ratio of 90% or more (almost completely withered)) | 5 (Herbicidal ratio of 90% or more (almost completely withered)) | 5 (Herbicidal ratio of 90% or more (almost completely withered)) | 4 (Herbicidal ratio of 70% or higher and lower than 90%) | 0 (Herbicidal ratio of 5% or lower (almost no effect)) | 5 (Herbicidal ratio of 90% or more (almost completely withered)) | 0 (Herbicidal ratio of 5% or lower (almost no effect)) | 5 (Herbicidal ratio of 90% or more (almost completely withered)) | 5 (Herbicidal ratio of 90% or more (almost completely withered)) | 4 (Herbicidal ratio of 70% or higher and lower than 90%) | 2 (Herbicidal ratio of 20% or higher and lower than 40%) | 3 (Herbicidal ratio of 40% or higher and lower than 70%) | 4 (Herbicidal ratio of 70% or higher and lower than 90%) | 3 (Herbicidal ratio of 40% or higher and lower than 70%) | 2 (Herbicidal ratio of 20% or higher and lower than 40%) | 5 (Herbicidal ratio of 90% or more (almost completely withered))
2 | CON=C(C)CC1CC(OS(=O)(=O)c2ccc(C)cc2)=C(c2c(C)cc(C)cc2C)C1=O (stereo not shown) [1-161] | 4 (Herbicidal ratio of 70% or higher and lower than 90%) | 5 (Herbicidal ratio of 90% or more (almost completely withered)) | 4 (Herbicidal ratio of 70% or higher and lower than 90%) | 5 (Herbicidal ratio of 90% or more (almost completely withered)) | 0 (Herbicidal ratio of 5% or lower (almost no effect)) | 3 (Herbicidal ratio of 40% or higher and lower than 70%) | 0 (Herbicidal ratio of 5% or lower (almost no effect)) | 0 (Herbicidal ratio of 5% or lower (almost no effect)) | 3 (Herbicidal ratio of 40% or higher and lower than 70%) | 0 (Herbicidal ratio of 5% or lower (almost no effect)) | 0 (Herbicidal ratio of 5% or lower (almost no effect)) | 5 (Herbicidal ratio of 90% or more (almost completely withered)) | 0 (Herbicidal ratio of 5% or lower (almost no effect)) | 0 (Herbicidal ratio of 5% or lower (almost no effect)) | 0 (Herbicidal ratio of 5% or lower (almost no effect)) | 0 (Herbicidal ratio of 5% or lower (almost no effect)) | 0 (Herbicidal ratio of 5% or lower (almost no effect)) | 0 (Herbicidal ratio of 5% or lower (almost no effect)) | 3 (Herbicidal ratio of 40% or higher and lower than 70%)
3 | CON=C(C)CC1CC(OC(=O)c2ccc(S(C)(=O)=O)c(C(=O)OC)c2Cl)=C(c2c(C)cc(C)cc2C)C1=O (stereo not shown) [1-162] | 4 (Herbicidal ratio of 70% or higher and lower than 90%) | 5 (Herbicidal ratio of 90% or more (almost completely withered)) | 5 (Herbicidal ratio of 90% or more (almost completely withered)) | 5 (Herbicidal ratio of 90% or more (almost completely withered)) | 5 (Herbicidal ratio of 90% or more (almost completely withered)) | 5 (Herbicidal ratio of 90% or more (almost completely withered)) | 4 (Herbicidal ratio of 70% or higher and lower than 90%) | 0 (Herbicidal ratio of 5% or lower (almost no effect)) | 5 (Herbicidal ratio of 90% or more (almost completely withered)) | 0 (Herbicidal ratio of 5% or lower (almost no effect)) | 5 (Herbicidal ratio of 90% or more (almost completely withered)) | 5 (Herbicidal ratio of 90% or more (almost completely withered)) | 4 (Herbicidal ratio of 70% or higher and lower than 90%) | 4 (Herbicidal ratio of 70% or higher and lower than 90%) | 4 (Herbicidal ratio of 70% or higher and lower than 90%) | 4 (Herbicidal ratio of 70% or higher and lower than 90%) | 3 (Herbicidal ratio of 40% or higher and lower than 70%) | 2 (Herbicidal ratio of 20% or higher and lower than 40%) | 5 (Herbicidal ratio of 90% or more (almost completely withered))
4 | CON=C(C)CC1CC(OC(=O)C(C)Oc2ccc(Oc3ccc(Cl)cc3Cl)cc2)=C(c2c(C)cc(C)cc2C)C1=O (stereo not shown) [1-163] | 4 (Herbicidal ratio of 70% or higher and lower than 90%) | 5 (Herbicidal ratio of 90% or more (almost completely withered)) | 5 (Herbicidal ratio of 90% or more (almost completely withered)) | 5 (Herbicidal ratio of 90% or more (almost completely withered)) | 5 (Herbicidal ratio of 90% or more (almost completely withered)) | 5 (Herbicidal ratio of 90% or more (almost completely withered)) | 4 (Herbicidal ratio of 70% or higher and lower than 90%) | 0 (Herbicidal ratio of 5% or lower (almost no effect)) | 5 (Herbicidal ratio of 90% or more (almost completely withered)) | 0 (Herbicidal ratio of 5% or lower (almost no effect)) | 5 (Herbicidal ratio of 90% or more (almost completely withered)) | 5 (Herbicidal ratio of 90% or more (almost completely withered)) | 4 (Herbicidal ratio of 70% or higher and lower than 90%) | 3 (Herbicidal ratio of 40% or higher and lower than 70%) | 3 (Herbicidal ratio of 40% or higher and lower than 70%) | 3 (Herbicidal ratio of 40% or higher and lower than 70%) | 3 (Herbicidal ratio of 40% or higher and lower than 70%) | 2 (Herbicidal ratio of 20% or higher and lower than 40%) | 5 (Herbicidal ratio of 90% or more (almost completely withered))
